{"source": "PubChem BioAssay (NCI)", "experiment_in_all_cases": "DTP human tumour cell line panel, 384-well format", "key": {"786-0 renal": {"tested_on": "786-0 renal"}, "A498 renal": {"tested_on": "A498 renal"}, "A549 NSCLC": {"tested_on": "A549 NSCLC"}, "ACHN renal": {"tested_on": "ACHN renal"}, "BT-549 breast": {"tested_on": "BT-549 breast"}, "CAKI-1 renal": {"tested_on": "CAKI-1 renal"}, "CCRF-CEM leukemia": {"tested_on": "CCRF-CEM leukemia"}, "COLO 205 colon": {"tested_on": "COLO 205 colon"}, "DU-145 prostate": {"tested_on": "DU-145 prostate"}, "EKVX NSCLC": {"tested_on": "EKVX NSCLC"}, "HCC-2998 colon": {"tested_on": "HCC-2998 colon"}, "HCT-15 colon": {"tested_on": "HCT-15 colon"}, "HL-60(TB) leukemia": {"tested_on": "HL-60(TB) leukemia"}, "HOP-62 NSCLC": {"tested_on": "HOP-62 NSCLC"}, "HOP-92 NSCLC": {"tested_on": "HOP-92 NSCLC"}, "HS 578T breast": {"tested_on": "HS 578T breast"}, "HT29 colon": {"tested_on": "HT29 colon"}, "IGROV1 ovarian": {"tested_on": "IGROV1 ovarian"}, "KM12 colon": {"tested_on": "KM12 colon"}, "M14 melanoma": {"tested_on": "M14 melanoma"}, "MALME-3M melanoma": {"tested_on": "MALME-3M melanoma"}, "MCF7 breast": {"tested_on": "MCF7 breast"}, "MDA-MB-231 breast": {"tested_on": "MDA-MB-231 breast"}, "MDA-MB-435 melanoma": {"tested_on": "MDA-MB-435 melanoma"}, "MDA-MB-468 breast": {"tested_on": "MDA-MB-468 breast"}, "MOLT-4 leukemia": {"tested_on": "MOLT-4 leukemia"}, "NCI-H226 lung": {"tested_on": "NCI-H226 lung"}, "NCI-H23 lung": {"tested_on": "NCI-H23 lung"}}, "note": "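GI50 = concentration required for 50% inhibition of growth. TGI: concentration producing complete growth inhibition.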", "data": [{"molecule": "COc1cccc(-c2cc(=O)c3ccccc3o2)c1N", "values": [{"measurement": "GI50", "setting": "786-0 renal", "value": "> 100", "unit": "µM"}, {"measurement": "TGI", "setting": "786-0 renal", "value": "> 100", "unit": "µM"}, {"measurement": "GI50", "setting": "A498 renal", "value": 49.7, "unit": "µM"}, {"measurement": "TGI", "setting": "A498 renal", "value": "> 100", "unit": "µM"}, {"measurement": "GI50", "setting": "A549 NSCLC", "value": "> 100", "unit": "µM"}, {"measurement": "TGI", "setting": "A549 NSCLC", "value": "> 100", "unit": "µM"}, {"measurement": "GI50", "setting": "ACHN renal", "value": "> 100", "unit": "µM"}, {"measurement": "TGI", "setting": "ACHN renal", "value": "> 100", "unit": "µM"}, {"measurement": "GI50", "setting": "BT-549 breast", "value": 77.3, "unit": "µM"}, {"measurement": "TGI", "setting": "BT-549 breast", "value": "> 100", "unit": "µM"}, {"measurement": "GI50", "setting": "CAKI-1 renal", "value": "> 100", "unit": "µM"}, {"measurement": "TGI", "setting": "CAKI-1 renal", "value": "> 100", "unit": "µM"}, {"measurement": "GI50", "setting": "CCRF-CEM leukemia", "value": 23.1, "unit": "µM"}, {"measurement": "TGI", "setting": "CCRF-CEM leukemia", "value": 67.6, "unit": "µM"}, {"measurement": "GI50", "setting": "COLO 205 colon", "value": 3.97, "unit": "µM"}, {"measurement": "TGI", "setting": "COLO 205 colon", "value": 10.8, "unit": "µM"}, {"measurement": "GI50", "setting": "DU-145 prostate", "value": 54.9, "unit": "µM"}, {"measurement": "TGI", "setting": "DU-145 prostate", "value": "> 100", "unit": "µM"}, {"measurement": "GI50", "setting": "EKVX NSCLC", "value": 37.1, "unit": "µM"}, {"measurement": "TGI", "setting": "EKVX NSCLC", "value": "> 100", "unit": "µM"}, {"measurement": "GI50", "setting": "HCC-2998 colon", "value": 13.8, "unit": "µM"}, {"measurement": "TGI", "setting": "HCC-2998 colon", "value": 58, "unit": "µM"}, {"measurement": "GI50", "setting": "HCT-15 colon", "value": 91.8, "unit": "µM"}, {"measurement": "TGI", "setting": "HCT-15 colon", "value": "> 100", "unit": "µM"}, {"measurement": "GI50", "setting": "HL-60(TB) leukemia", "value": 2790, "unit": "nM"}, {"measurement": "TGI", "setting": "HL-60(TB) leukemia", "value": 21.2, "unit": "µM"}, {"measurement": "GI50", "setting": "HOP-62 NSCLC", "value": 33.1, "unit": "µM"}, {"measurement": "TGI", "setting": "HOP-62 NSCLC", "value": "> 100", "unit": "µM"}, {"measurement": "GI50", "setting": "HOP-92 NSCLC", "value": 56.1, "unit": "µM"}, {"measurement": "TGI", "setting": "HOP-92 NSCLC", "value": "> 100", "unit": "µM"}, {"measurement": "GI50", "setting": "HS 578T breast", "value": 47.7, "unit": "µM"}, {"measurement": "TGI", "setting": "HS 578T breast", "value": "> 100", "unit": "µM"}, {"measurement": "GI50", "setting": "HT29 colon", "value": 13.2, "unit": "µM"}, {"measurement": "TGI", "setting": "HT29 colon", "value": "> 100", "unit": "µM"}, {"measurement": "GI50", "setting": "IGROV1 ovarian", "value": 30.7, "unit": "µM"}, {"measurement": "TGI", "setting": "IGROV1 ovarian", "value": "> 100", "unit": "µM"}, {"measurement": "GI50", "setting": "KM12 colon", "value": 40.7, "unit": "µM"}, {"measurement": "TGI", "setting": "KM12 colon", "value": "> 100", "unit": "µM"}, {"measurement": "GI50", "setting": "M14 melanoma", "value": 3.91, "unit": "µM"}, {"measurement": "TGI", "setting": "M14 melanoma", "value": 20, "unit": "µM"}, {"measurement": "GI50", "setting": "MALME-3M melanoma", "value": 2250, "unit": "nM"}, {"measurement": "TGI", "setting": "MALME-3M melanoma", "value": 5.26, "unit": "µM"}, {"measurement": "GI50", "setting": "MCF7 breast", "value": 88.1, "unit": "µM"}, {"measurement": "TGI", "setting": "MCF7 breast", "value": "> 100", "unit": "µM"}, {"measurement": "GI50", "setting": "MDA-MB-231 breast", "value": 40.4, "unit": "µM"}, {"measurement": "TGI", "setting": "MDA-MB-231 breast", "value": "> 100", "unit": "µM"}, {"measurement": "GI50", "setting": "MDA-MB-435 melanoma", "value": 10.4, "unit": "µM"}, {"measurement": "TGI", "setting": "MDA-MB-435 melanoma", "value": "> 100", "unit": "µM"}, {"measurement": "GI50", "setting": "MDA-MB-468 breast", "value": 278, "unit": "nM"}, {"measurement": "TGI", "setting": "MDA-MB-468 breast", "value": 844, "unit": "nM"}, {"measurement": "GI50", "setting": "MOLT-4 leukemia", "value": 25.9, "unit": "µM"}, {"measurement": "TGI", "setting": "MOLT-4 leukemia", "value": 66.5, "unit": "µM"}, {"measurement": "GI50", "setting": "NCI-H226 lung", "value": 25, "unit": "µM"}, {"measurement": "TGI", "setting": "NCI-H226 lung", "value": 70.2, "unit": "µM"}, {"measurement": "GI50", "setting": "NCI-H23 lung", "value": 23.9, "unit": "µM"}, {"measurement": "TGI", "setting": "NCI-H23 lung", "value": 99.5, "unit": "µM"}]}]}
